Experimental data from PubChem BioAssay AID1963422 (Molecular Pharmacology Branch, DTP, NCI, 2024).

Test system: 463943-066-T-J2-PDC complex spheroid growth
Assay: Anticancer human tumor 463943-066-T-J2-PDC patient-derived colon adenocarcinoma cell line growth inhibition [Asc]
Conditions: for IC50: curve of first compound; for viability, T/C: stronger effect = lower value
How it was run: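 Tumor cells were grown as complex spheroids with human endothelial cells (HUVEC) and human mesenchymal stem cells as stroma. Agents were tested alone and in combination, in half-log steps down from the clinical Cmax, or from 10 microM where Cmax was unknown.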
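Further: compound exposure lasted 7 days.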
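Wherever viability, T/C is given: 100% = DMSO vehicle control wells.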

Structure (SMILES): CNC(C)C(=O)NC1CN(S(=O)(=O)c2cccc(S(=O)(=O)N3CCC4CCC(C(=O)NC(c5ccccc5)c5ccccc5)N4C(=O)C(NC(=O)C(C)NC)C3)c2)CCC2CCC(C(=O)NC(c3ccccc3)c3ccccc3)N2C1=O (configuration not stated) + CCN1C(C(=O)NC23CCC(C(=O)O)(CC2)CC3)C(c2cccc(Cl)c2F)C2(C(=O)Nc3cc(Cl)ccc32)C12CCCCC2
- IC50 (second compound 0.00949 µM): > 1000 nM
- IC50 (second compound 0.03 µM): > 1000 nM
- IC50 (second compound 0.0949 µM): > 1000 nM
- IC50 (second compound 0.3 µM): > 1000 nM
- IC50 (second compound 0.949 µM): > 1000 nM
- IC50 (second compound 3 µM): > 1000 nM
- viability, T/C (second compound 0.00949 µM, first compound 0.00316 µM): 96.9%
- viability, T/C (second compound 0.00949 µM, first compound 0.01 µM): 93.3%
- viability, T/C (second compound 0.00949 µM, first compound 0.0316 µM): 99.3%
- viability, T/C (second compound 0.00949 µM, first compound 0.1 µM): 93.7%
- viability, T/C (second compound 0.00949 µM, first compound 0.316 µM): 95.9%
- viability, T/C (second compound 0.00949 µM, first compound 1 µM): 86.8%
- viability, T/C (second compound 0.03 µM, first compound 0.00316 µM): 103%
- viability, T/C (second compound 0.03 µM, first compound 0.01 µM): 96.6%
- viability, T/C (second compound 0.03 µM, first compound 0.0316 µM): 89.4%
- viability, T/C (second compound 0.03 µM, first compound 0.1 µM): 93.2%
- viability, T/C (second compound 0.03 µM, first compound 0.316 µM): 95%
- viability, T/C (second compound 0.03 µM, first compound 1 µM): 85%
- viability, T/C (second compound 0.0949 µM, first compound 0.00316 µM): 94.2%
- viability, T/C (second compound 0.0949 µM, first compound 0.01 µM): 93.2%
- viability, T/C (second compound 0.0949 µM, first compound 0.0316 µM): 81.9%
- viability, T/C (second compound 0.0949 µM, first compound 0.1 µM): 89.3%
- viability, T/C (second compound 0.0949 µM, first compound 0.316 µM): 91.8%
- viability, T/C (second compound 0.0949 µM, first compound 1 µM): 86.1%
- viability, T/C (second compound 0.3 µM, first compound 0.00316 µM): 83.8%
- viability, T/C (second compound 0.3 µM, first compound 0.01 µM): 81.1%
- viability, T/C (second compound 0.3 µM, first compound 0.0316 µM): 82.1%
- viability, T/C (second compound 0.3 µM, first compound 0.1 µM): 81.9%
- viability, T/C (second compound 0.3 µM, first compound 0.316 µM): 84.6%
- viability, T/C (second compound 0.3 µM, first compound 1 µM): 81%
- viability, T/C (second compound 0.949 µM, first compound 0.00316 µM): 73.1%
- viability, T/C (second compound 0.949 µM, first compound 0.01 µM): 85.1%
- viability, T/C (second compound 0.949 µM, first compound 0.0316 µM): 76.1%
- viability, T/C (second compound 0.949 µM, first compound 0.1 µM): 75.8%
- viability, T/C (second compound 0.949 µM, first compound 0.316 µM): 76.8%
- viability, T/C (second compound 0.949 µM, first compound 1 µM): 71.5%
- viability, T/C (second compound 3 µM, first compound 0.00316 µM): 71.1%
- viability, T/C (second compound 3 µM, first compound 0.01 µM): 73.2%
- viability, T/C (second compound 3 µM, first compound 0.0316 µM): 74.7%
- viability, T/C (second compound 3 µM, first compound 0.1 µM): 69.3%
- viability, T/C (second compound 3 µM, first compound 0.316 µM): 75.5%
- viability, T/C (second compound 3 µM, first compound 1 µM): 69.4%
